A word on the pIC50: it is the negative decadic logarithm of the IC50, by convention in mol/L.

Each structure is given as a SMILES string. pIC50: −log10 of the molar value.

1 compound from BindingDB's records for doi:10.1021/jm00160a049 (1986) can be followed below.

The target in the test is T1, Renin (Homo sapiens, UniProt P00797).
T1 sequence (P00797 whole entry): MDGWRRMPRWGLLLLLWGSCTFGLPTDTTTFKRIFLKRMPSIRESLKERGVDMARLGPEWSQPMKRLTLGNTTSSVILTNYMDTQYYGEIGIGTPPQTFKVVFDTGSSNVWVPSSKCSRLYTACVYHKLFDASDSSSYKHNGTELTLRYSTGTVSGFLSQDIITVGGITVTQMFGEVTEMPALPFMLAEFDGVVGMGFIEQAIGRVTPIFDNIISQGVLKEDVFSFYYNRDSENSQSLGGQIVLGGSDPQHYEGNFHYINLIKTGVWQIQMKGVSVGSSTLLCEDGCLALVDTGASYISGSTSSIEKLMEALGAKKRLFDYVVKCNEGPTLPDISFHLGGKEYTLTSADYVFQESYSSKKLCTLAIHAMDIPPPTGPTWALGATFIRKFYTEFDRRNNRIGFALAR
Kind of test: ChEBML_195744. The source says:
Inhibition of human plasma renin

In the case of `CC[C@H](C)[C@H](NC(=O)[C@@H](C[C@H](O)[C@H](CC(C)C)NC(=O)[C@H](Cc1c[nH]cn1)N(C)C(=O)[C@H](Cc1ccccc1)NC(=O)[C@@H]1CCCN1C(=O)OC(C)(C)C)C(C)C)C(=O)NCc1ccccn1` [2-(1-{[1-(2-Hydroxy-1-isobutyl-5-methyl-4-{2-methyl-1-[(pyridin-2-ylmethyl)-carbamoyl]-butylcarbamoyl}-hexylcarbamoyl)-2-(3H-imidazol-4-yl)-ethyl]-methyl-carbamoyl}-2-phenyl-ethylcarbamoyl)-pyrrolidine-1-carboxylic acid tert-butyl ester], the negative logarithm of the IC50 (pIC50) was 9.19.
